Assay results reported in patent publication US9688865B2, “Liquid composition, pigment dispersion liquid, and aqueous ink composition for ink jet recording” (Seiko Epson Corporation, priority 2015, dated 2017).

Tests used:
[1] = physchem
[2] = Distribution coefficient of water-octanol (log P), OECD Test Guideline 107

Structure (SMILES)	logP [1]	logP [2]
OCC(CO)(CO)CO [Pentaerythritol]	-2.36	
CCCCCCCC(=O)OCC(CO)(CO)CO [Pentaerythritol caprylate, pentaerythritol caprylate]		2.29
